Reference: patent EP2012793B1, “USE OF A TRICYCLIC COMPOUND FOR PREPARING A MEDICAMENT FOR TREATING SKELETAL MUSCLE DEGENERATION OF GENETIC ORIGIN” (Association Française contre les Myopathies, priority 2006, dated 2007)
Counter-ions that a name gives are not always drawn.

Key:
[1] = test system: souche de nématode dépourvue de dystrophine; test: Test on dystrophin-deficient nematode strain (model of degenerative myopathy): paralysis phenotype and cytological count of degenerating muscle cells; assay type: in vivo, Caenorhabditis elegans; details: for Diminution de la dégénérescence en %: untreated = 0; for Pourcentage d'animaux paralysés à J7: untreated = 100
Method: Les composés ont été testés sur une souche de nématode dépourvue de dystrophine (Gieseler et al., Current Biology, 2000, vol. 10, p1092-1097) et (Ségalat, Neuromuscular Disorders, 2002, Suppl: S105-9). Cette souche est utilisée comme modèle de myopathie dégénérative. Dans cette souche, jusqu'à 30% des cellules musculaires servant à la locomotion (muscles longitudinaux) dégénèrent à l'état adulte (7 jours à 15°C), ce qui se traduit par une paralysie progressive des animaux.
Les composés sont administrés par mélange avec la gélose sur laquelle sont cultivés les animaux. Ils pénètrent par diffusion à travers la cuticule des animaux.
L'effet des composés sur la dégénérescence musculaire est évalué par 1) l'observation du phénotype des animaux (paralysie), et 2) par l'examen cytologique de la. dégénérescence musculaire au moyen de marqueurs musculaires : rodamine-phalloidine et anticorps anti-myosine. Cet examen permet de compter le nombre de cellules musculaires en dégénérescence ou mortes (Gieseler et al. , 2000, supra).

[2] = test system: souris mdx (génotype C57/BL6 mdx5cv); details: treated from 2 to 6 weeks of age
Source text: (§1) Les tests effectués chez la souris sont de plusieurs types : histologiques, fonctionnels sur l'animal entier, et fonctionnels sur muscles disséqués. Les tests sont effectués sur la souris mdx (génotype C57/BL6 mdx5cv), modèle murin de myopathie dégénérative. Ces tests sont notamment détaillés dans les publications suivantes auxquelles on pourra se référer : • De Luca A, et al. Am. J. Pathol. 2005; 166(2), 477-89. • Divet A, etal. Pflugers Arch. 2002 Aug; 444(5), 634-43. Epub 2002 Jul 10. • Rafael JA, et al. Mamm Genome. 2000 Sep; 11(9), 725-8.
(§2) Les composés sont administrés oralement aux souris dans leur nourriture. Les souris sont traitées de l'âge de 2 semaines à 6 semaines. Elles sont testées à 6 semaines.

[3] = test system: protéolyse du muscle de C. elegans; test: C. elegans muscle proteolysis model representative of cachexia (protocol of Zdinak et al.); assay type: in vivo; details: remaining proteolysis relative to control; strongly reduced
[4] = test system: souris mdx (génotype C57/BL6 mdx5cv); test: mdx mouse, histological tests (fibre size dispersion, diaphragm degeneration/necrosis, centronucleated fibres); assay type: in vivo
Source text: as §1, §2

[5] = 0,1 mg/ml in culture agar (0,2-0,3 mM), after 7 days of culture at 15°C
[6] = concentration efficace 0,1 mg/ml in culture agar

With CN(C)CCCN1c2ccccc2CCc2ccccc21 [Imipramine chlorhydrate, imipramine] the “Diminution de la dégénérescence en %” value [1, 5] was 37%, the “Pourcentage d'animaux paralysés à J7” value [1, 5] was 65% and the “Augmentation de la tension développée par le muscle EDL sur animaux vivants” value ([2]; 40mg/jour/kg oral in food) was 20%. For the same compound, the “Augmentation du score avec le test d'agrippement” value ([2]; 40mg/jour/kg oral in food) was 48%, the “Augmentation de la tension maximale développée par le muscle isolé” value ([2]; 40mg/jour/kg oral in food, triton-skinned fibre protocol) was 50% and the protéolyse [3] was 20 % de la protéolyse du témoin.
With CC(CN(C)C)CN1c2ccccc2Sc2ccccc21 (stereo not shown) [Trimeprazine, triméprazine] the “Diminution de la dégénérescence en %” value [1, 6] was 65%.
With CNCCCN1c2ccccc2CCc2ccccc21 [Desipramine chlorhydrate, désipramine] the “Diminution de la dégénérescence en %” value [1, 5] was 58% and the “Pourcentage d'animaux paralysés à J7” value [1, 5] was 58%.
In the case of COc1ccc2c(c1)N(C[C@H](C)CN(C)C)c1ccccc1S2 [Methotrimeprazine, méthotriméprazine], the “Diminution de la dégénérescence en %” value [1, 6] was 70%.
With CN(C)CCC=C1c2ccccc2C=Cc2ccccc21 [Cyclobenzaprine, cyclobenzaprine] the “Diminution de la dégénérescence en %” value ([1]; concentration efficace 0,05 mg/ml in culture agar) was 63%, the “Augmentation de la force exercée dans test d'agrippement” value ([2]; 3mg/jour/kg oral in food) was 24% and the “Augmentation du score le test d'agrippement” value ([2]; 3mg/jour/kg oral in food) was 40%. The “Réduction de l'indice de dégénérescence du diaphragme (fibres nécrotiques et fibres centronucléées)” value ([4]; 3mg/jour/kg oral in food, treated from 2 to 6 weeks of age) was 21% and the “Réduction de la dispersion de taille des fibres (marqueur de dégénérescence)” value ([4]; 3mg/jour/kg oral in food, treated from 2 to 6 weeks of age, versus untreated animals) was 52%.
CC(CN(C)C)CN1c2ccccc2CCc2ccccc21 (stereo not shown) [Trimipramine maleate, trimipramine] was tested, and the nécrose du diaphragme ([4]; 15 mg/kg/jour, test of Raymackers et al., p<5%) was “réduit la nécrose du diaphragme” and the “nombre de fibres centronucléées” value ([4]; 15 mg/kg/jour, test of Shavlakadze et al., p<0,1%) was “réduit”.
In the case of NCCc1c[nH]c2ccc(O)cc12 [sérotonine], the dégénérescence musculaire ([1]; result in words, concentration not given) was “diminue également la dégénérescence musculaire”.
CN(C)CC/C=C1/c2ccccc2Sc2ccc(Cl)cc21 [Chloroprothixene, chlorprothixene] was tested, and the “Diminution de la dégénérescence en %” value ([1]; concentration efficace 0,02 mg/ml in culture agar) was 58%.
